Legend:
recombinant RIPK1 = biological target: T1, recombinant RIPK1 (Homo sapiens, UniProt Q13546); test: RIPK1 ADPGlo kinase assay; type: biochemical; details: concentrations up to 1 µM
T1 construct: made in house
Method: Cell viability was determined using CellTiter‐Glo assay (Promega). […] Kinase activities were determined using ADPGlo assay (Promega). • Structure of the active conformation of RIPK2 kinase domain in complex with AMP‐PNP (PDB ID: 5AR3). Figure depicts locations of the adenine and deep pockets. […] Key residues discussed in the text are shown as sticks (Lys/Glu Glu‐in bond—bottom left, catalytic Asp residues (Asp146/Asp164)—bottom right, R‐spine—right). P‐loop of CSLP18 structure is shown in yellow. Structured segment of activation segment (AS) observed in active conformation structures is shown in red. • Structure of RIPK2 kinase domain (gray ribbons) in complex with CSLP18 (orange) (PDB ID 6FU5). Sticks are shown for residues in the vicinity of the cavity surrounding the key inhibitor position R1. A 2Fo‐Fc electron density map contoured at 1 sigma is shown for the inhibitor and the residues lining the key region around inhibitor R^1 position. • Molecular docking model of RIPK2 kinase domain in complex with CSLP37 (yellow) based on RIPK2/CSLP18 structure (Fig 3D). […] Data information: Data in (A–C, G) represent the mean ± SEM of three independent experiments. **P < 0.01. Two‐way ANOVA was used to determine statistical significance. […]

THP1Blue cells, NOD2 = test: THP1Blue NF-κB-SEAP reporter assay, MDP (NOD2); type: cell-based; details: Homo sapiens; MDP 10 μg/ml; read-out: THP1-Blue NF-κB Inhibition IC50 (MDP)
Method: (§1) For HEKBlue assay, cells were seeded into clear 96‐well plates at 7.5 × 10^3 cells/well and allowed to attach for 48 h. On the day of the experiment, media was changed to 100 μl of HEKBlue detection media (InvivoGen). Inhibitors were diluted and added in 0.5 μl DMSO 15 min prior to the addition of 1 ng/ml L18‐MDP (InvivoGen). After 8–9 h, absorbance at 620 nm was measured using Victor3V plate reader (Perkin Elmer, Waltham, MA). Values of media‐only wells were subtracted and %inhibition for each compound concentration relative to the DMSO/L18‐MDP‐treated controls was calculated. […] After induction, 20 μl of media was mixed with 180 μl of QUANTI‐Blue reagent (InvivoGen) and incubated at 37°C for 3–4 h, followed by absorbance measurement at 620 nm. IC50 values were calculated as described for HEKBlue assay. […]
(§2) For HEKBlue assay, cells were seeded into clear 96 well plates at 7.5x10^3 cells/well and allowed to attach for 48 h. […] After 8-9 h, absorbance at 620 nm was measured using Victor3V plate reader (Perkin Elmer, Waltham, MA). Values of media-only wells were subtracted and %inhibition for each compound concentration relative to the DMSO/L18-MDP-treated controls were calculated.
(§3) Inhibition values + StDev were fitted by non-linear regression using Prism software (GraphPad Software, La Jolla, CA) to calculate IC50 values. […] IC50 values were calculated as described for HEKBlue assay. […]

[1] = system: THP1Blue cells, TLR1/TLR2/TLR4; test: THP1Blue NF-κB-SEAP reporter assay, non-NOD agonists (Pam3CSK4, LPS, HKLM); type: cell-based, human; details: Pam3CSK4, LPS or HKLM
Method: as §1, §2, §3

T1 sequence (Q13546 whole entry, species assumed): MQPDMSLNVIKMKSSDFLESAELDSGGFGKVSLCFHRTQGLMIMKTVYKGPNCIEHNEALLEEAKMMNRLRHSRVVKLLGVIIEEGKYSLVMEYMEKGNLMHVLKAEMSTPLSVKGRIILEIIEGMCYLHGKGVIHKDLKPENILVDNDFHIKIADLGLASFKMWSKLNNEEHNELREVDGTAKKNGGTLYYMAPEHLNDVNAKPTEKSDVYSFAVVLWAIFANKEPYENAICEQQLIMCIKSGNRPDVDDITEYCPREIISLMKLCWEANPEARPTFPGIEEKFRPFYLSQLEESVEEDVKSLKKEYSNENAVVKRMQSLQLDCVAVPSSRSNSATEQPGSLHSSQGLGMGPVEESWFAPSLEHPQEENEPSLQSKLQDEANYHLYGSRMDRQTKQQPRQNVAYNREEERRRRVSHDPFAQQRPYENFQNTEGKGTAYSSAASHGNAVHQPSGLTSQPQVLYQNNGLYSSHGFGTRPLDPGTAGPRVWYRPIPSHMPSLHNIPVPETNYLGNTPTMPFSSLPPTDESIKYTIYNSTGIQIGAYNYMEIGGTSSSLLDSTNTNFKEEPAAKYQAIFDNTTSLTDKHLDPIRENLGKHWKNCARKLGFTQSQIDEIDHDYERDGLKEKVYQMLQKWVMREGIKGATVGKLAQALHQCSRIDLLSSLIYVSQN

Structure (SMILES) | inhibitory activity against RIPK1 (recombinant RIPK1) | IC50 (THP1Blue cells, NOD2) | effect on NF-κB responses to non-NOD agonists [1]
CCCS(=O)(=O)Nc1cc(-c2cc(-c3ccc(N4CCNCC4)cc3)cnc2N)cc(OC)c1OC [CSLP43] | no inhibitory activity | 1.34 ± 0.08 nM | no detected effect
CCCS(=O)(=O)Nc1cc(-c2cc(-c3ccc(N4CCNCC4)cc3)cnc2N)cc(F)c1OC [CSLP37] | no inhibitory activity | 22.5 ± 2.1 nM | no detected effect

— paper PMC6120666 (The EMBO Journal, 2018)
